Data: US20220323380A1, “DRUG COMBINATION FOR USE IN THE TREATMENT OF INFLAMMATORY DISEASES” (ISANAS AG, priority 2019, published 2022)

Tests used:
[1] = test system: patient suffering from MS; conditions: daily 300 mg bupropion over four weeks, MRI after three months, MS patient with depression; cited from earlier work
[2] = in vivo; cited from earlier work
MS patients = conditions: cited from earlier work
PC12D cells = conditions: cell cultures (Tsang 2002); cited from earlier work
[3] = humans, compared with MK-4 (Sato 2012); cited from earlier work
EAE rat model = conditions: cited from earlier work
MS-patients = test: Treatment of MS patients with the triple combination (case reports, MS score); assay type: in vivo, human; conditions: Example 2: one MS patient, own words
From the text: The scoring ranges from zero to ten points and is the sum of the physical score and cognitive score. Attributing half points was allowed to better cover the full scale and subtlety of MS symptoms.

CC(NC(C)(C)C)C(=O)c1cccc(Cl)c1 (centres unmarked) [bupropion]
MRI analysis of lesions [1]: rather showed a reduction of the lesions than a progression

CC1=CC(=O)c2ccccc2C1=O [VK3, 2-methylnaphthalene-1,4-dione]
reason for discontinued sales as prescription drug [2]: adverse effects and liver toxicity

Vitamin D
EDSS scores and annual relapse rate (ARR) (MS patients; meta-analysis Zheng 2018): no therapeutic effect
recurrence of relapse, worsening of disability (EDSS), MRI lesions (MS patients; review Jagannath 2018): no effect

CC1=C(C/C=C(\C)CCC[C@H](C)CCC[C@H](C)CCCC(C)C)C(=O)c2ccccc2C1=O [vitamin K1, phylloquinone]
nerve growth factor-mediated neurite outgrowth (PC12D cells): promoting activity

CC(C)=CCC/C(C)=C/CC/C(C)=C/CC/C(C)=C/CC/C(C)=C/CC/C(C)=C/CC/C(C)=C/CC1=C(C)C(=O)c2ccccc2C1=O [MK-7]
bioavailability after oral intake [3]: much higher bioavailability after oral intake than MK-4

menaquinone [VK2]
efficacy in EAE (EAE rat model; given after the onset of EAE): not effective
severity of EAE (EAE rat model; prophylactic intraperitoneal administration, 62.5 mg/kg/d): ameliorated the severity of EAE
nerve growth factor-mediated neurite outgrowth (PC12D cells): promoting activity

ocrelizumab: humanised monoclonal antibody that targets the CD20 marker on B lymphocytes
patient's comparison of ocrelizumab with the combination therapy (MS-patients): could not achieve what this combination therapy could

C=C1CC[C@H](O)C/C1=C/C=C1\CCC[C@]2(C)[C@@H]([C@H](C)CCCC(C)C)CC[C@@H]12 [vitamin D3, cholecalciferol]
correlation with treatment effect in MS (MS patients; meta-analysis (Steinwart 2018), weekly dosage of 20,000 IU D3): did not provide any relevant correlation with treatment effect
